Each block holds one molecule with its values, some of them ahead of it. Non-standard residues stand in square brackets, D forms with d. No end group written: not given here. pS = N[C@@H](COP(=O)(O)O)C(=O)O
Columns and labels:
[1] = target: T1, 14-3-3σ (Homo sapiens, UniProt P31947); experiment: Isothermal titration calorimetry (ITC) under reducing conditions, 14-3-3σ; format: binding; conditions: FITC-labelled peptide titrated into 14-3-3σ, 18 injections of 2 µl, 25°C, 50 mM Tris pH 7.5, 150 mM NaCl, 5 mM MgCl2, 2 mM 2-mercaptoethanol, 0.05%(v/v) Tween-20
T1 construct: The full-length 14-3-3 isoforms were used in biophysical assays; His6 (cleaved yes); made in house; host or cells: Escherichia coli NiCo21(DE3)
T1 sequence (P31947 1-248): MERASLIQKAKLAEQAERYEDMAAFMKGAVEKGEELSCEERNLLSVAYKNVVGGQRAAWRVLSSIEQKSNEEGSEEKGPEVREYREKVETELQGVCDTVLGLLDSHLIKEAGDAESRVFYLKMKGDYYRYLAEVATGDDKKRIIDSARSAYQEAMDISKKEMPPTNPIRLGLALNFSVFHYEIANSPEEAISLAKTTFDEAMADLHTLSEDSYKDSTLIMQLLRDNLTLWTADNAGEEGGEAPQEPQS
Method: (§1) 14-3-3 isoforms γ, τ, σ, ɛ, η, ζ, β (full length) and 14-3-3σΔC (residues 231–248 deleted) were expressed with a His6 tag in Escherichia coli NiCo21(DE3) competent cells from a pPRoeX-Htb vector in 2×TY medium. Purification was carried out by affinity chromatography on nickel columns (HisTrap HP, 5 ml). The tags were cleaved with TEV protease. The proteins were then loaded again onto nickel columns to remove any noncleaved protein. A final purification step was performed by loading the proteins onto a size-exclusion chromatography column (HiLoad 26/600 Superdex 75 pg) equilibrated in 20 mM Tris–HCl pH 7.5, 150 mM NaCl, 2 mM DTT. All purification steps were performed on an ÄKTApure protein-purification system (Cytiva). The full-length 14-3-3 isoforms were used in biophysical assays and the 14-3-3σΔC construct was used for crystallographic purposes. […]
(§2) Fluorescence polarization (FP) binding assays were carried out in Corning 384-well 3575 plates, serially diluting (twofold) the 14-3-3 isoforms in the presence of 10 nM FITC-labelled peptides. […] The data were collected on a PHERAstar FSX plate reader (BMG Labtech) with an excitation wavelength of 485 nm and an emisson wavelength of 520 nm. […] The data were analysed using the MicroCal PEAQ-ITC Analysis Software (Malvern).

[2] = system: 14-3-3 isoforms; experiment: Fluorescence polarization (FP) binding assay, all 14-3-3 isoforms taken together; set-up: species or system human; conditions: FITC-labelled peptide 10 nM, only a modest FP signal at the highest concentrations, not possible to calculate Kd values
Method: as §1, §2

[3] = target: T1, 14-3-3σ; experiment: X-ray protein crystallography with 14-3-3σΔC; conditions: crystal structures with 14-3-3σΔC, PDB 7b13 (SHN3pS542) and 7b15 (SHN3pT869)
Method: 14-3-3 isoforms γ, τ, σ, ɛ, η, ζ, β (full length) and 14-3-3σΔC (residues 231–248 deleted) were expressed with a His6 tag in Escherichia coli NiCo21(DE3) competent cells from a pPRoeX-Htb vector in 2×TY medium. Purification was carried out by affinity chromatography on nickel columns (HisTrap HP, 5 ml). The tags were cleaved with TEV protease. The proteins were then loaded again onto nickel columns to remove any noncleaved protein. A final purification step was performed by loading the proteins onto a size-exclusion chromatography column (HiLoad 26/600 Superdex 75 pg) equilibrated in 20 mM Tris–HCl pH 7.5, 150 mM NaCl, 2 mM DTT. All purification steps were performed on an ÄKTApure protein-purification system (Cytiva). The full-length 14-3-3 isoforms were used in biophysical assays and the 14-3-3σΔC construct was used for crystallographic purposes.
The peptides SHN3pS542 (LLRSHpS542MPSAAC) and SHN3pT869 (PDRPDpT869EPEPPP) were ordered with a purity of >95% from GenScript in an N-terminally acetylated version and an N-terminally FITC-Ahx-labelled version.
For protein crystallization, a C-terminally truncated version of 14-3-3σ was used (14-3-3σΔC; deletion of the 17 C-terminal amino acids; Schumacher et al., 2010[▸]). […]

[4] = target: T2, 14-3-3γ (full length) (human, UniProt P61981 1-247); experiment: ITC; peptide titrated into the cell containing the 14-3-3 protein, 18 injections of 2 µl, 25°C; 50 mM Tris pH 7.5, 150 mM NaCl, 5 mM MgCl2, 2 mM 2-mercaptoethanol, 0.05% Tween-20 (reducing conditions); conditions: both partners purified
T2 construct: 14-3-3 protein gamma, human, full length; Expressed from a pPRoeX-Htb vector; also called 14-3-3 isoform γ; source: E. coli NiCo21(DE3), purified (nickel column, TEV cleavage, second nickel column, SEC)
T2 sequence (looked up): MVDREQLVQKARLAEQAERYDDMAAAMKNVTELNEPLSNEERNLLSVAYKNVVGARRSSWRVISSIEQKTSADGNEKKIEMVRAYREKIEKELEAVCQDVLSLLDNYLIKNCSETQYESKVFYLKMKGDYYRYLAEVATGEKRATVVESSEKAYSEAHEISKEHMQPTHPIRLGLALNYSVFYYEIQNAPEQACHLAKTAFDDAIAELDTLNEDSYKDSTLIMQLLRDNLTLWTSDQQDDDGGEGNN

[5] = target: T3, 14-3-3σ (full length) (human, UniProt P31947 1-248); experiment: as above; conditions: both partners purified
T3 construct: 14-3-3 protein sigma, human, full length; Expressed from a pPRoeX-Htb vector; also called 14-3-3 isoform σ; the σ isoform; source: E. coli NiCo21(DE3), purified (nickel column, TEV cleavage, second nickel column, SEC)
T3 sequence (looked up): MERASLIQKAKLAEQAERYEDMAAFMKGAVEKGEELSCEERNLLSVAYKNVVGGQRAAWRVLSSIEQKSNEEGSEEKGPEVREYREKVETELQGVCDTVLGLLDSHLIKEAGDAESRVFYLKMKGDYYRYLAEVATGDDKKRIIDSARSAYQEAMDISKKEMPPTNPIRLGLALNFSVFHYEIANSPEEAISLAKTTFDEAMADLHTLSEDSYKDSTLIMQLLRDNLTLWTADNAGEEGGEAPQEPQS

- Kd [1]: 4.8 ± 0.8 µM
Molecule: LLRSHpS542MPSAAC [SHN3pS542-FITC, N-terminally FITC-Ahx-labelled version of SHN3pS542, as used in the FP assay]

- binding to 14-3-3 isoforms (in words) [2]: very weak 14-3-3 binder
Molecule: PDRPDpT869EPEPPP [SHN3pT869, synthetic phosphopeptide PDRPDpT869EPEPPP derived from human Schnurri-3 (SHN3)]
- polar contacts with 14-3-3σ residues [3]: Polar contacts are established between Glu872 and Glu870 of SHN3pT869 and Asn50, Lys122, Lys49 and Asn175 on the C-terminal side of the peptide and between Asp868 and Pro867 of SHN3pT869 and Asn226 on the N-terminal side of the peptide

- Kd [4]: 0.69 ± 0.15 µM
- Kd [5]: 5.8 ± 1.3 µM
B1: SHN3pS542 peptide, N-terminally acetylated (peptide)
peptide: Ac-LLRSH[pS]MPSAAC
modifications: also: phosphoserine at 542, position not mapped
notes: Schnurri-3 (SHN3, transcription factor HIVEP3), human, 12-mer around phosphorylated Ser542; also called the acetylated peptide; source: synthetic peptide, bought: GenScript (purity >95%)

— PMC8329713, “The identification and structural analysis of potential 14-3-3 interaction sites on the bone regulator protein Schnurri-3” (Acta Crystallographica. Section F, Structural Biology …, 2021)
